Data reported in PMC12040169 (PLOS Biology, 2025).
Several values for one entry are separate records, joined by “and”; a condition that tells them apart may be missing. Identical values can stand only once.

Tests used:
[1] = system: HeLa; settings: bulk resorufin, single well, 28.5 h, 10 µM, Bulk resorufin fluorescence
[2] = in vitro; settings: human, hela cells, % viability

Row | SMILES | % viability [1] | viability at 28.5 h, 10 µM [2] [%]
1 | CC(C)(C)OC(=O)N1CCC[C@H]1C(=O)c1nccs1 [CBK284282] | 95.5% | 108
2 | C[C@H]1CN2CCCC2CN1Cc1cccc(F)c1 (stereo partly drawn) [CBK285425] | 104% | 97.7
3 | C[C@@H]1CN2CCCC2CN1Cc1ccc(F)cc1F (stereo partly drawn) [CBK285455] | 97.8% | 106
4 | COc1ccccc1CC(=O)Nc1ccc(O)cc1C(=O)O [CBK264305] | 91.2% | 105
5 | c1ccc(-c2csc3ncnc(NCc4ccco4)c23)cc1 [CBK017506] | 84.6% | 91.1
6 | CCOC(=O)c1cnc2c(Cl)cccc2c1NCCN1CCOCC1 [CBK263919] | 88.1% and 109% | –
7 | C[C@@H](Cn1c(=O)oc2ccccc21)NC(=O)Cc1c[nH]c2ccccc12 [CBK284534] | 88.7% | 85.7
8 | C[C@H]1CN2C[C@H](O)CC2CN1Cc1cccc(Oc2ccccc2)c1 (stereo partly drawn) [CBK284566] | 96.2% | 93.6
9 | CNc1cc(NS(=O)(=O)c2ccc(N)cc2)nc(NC)n1 [CBK011865] | 93% | –
10 | Cn1cc(C(=O)N2CCc3[nH]c4ccccc4c3C2)cn1 [CBK281875] | 104% and 83.7% | –
11 | COC(=O)Cn1nnc(-c2ccc(C)cc2)n1 [CBK068195] | 123% and 93.2% | –
12 | CC(NC(=O)N(Cc1ccccc1C(F)(F)F)CC(C)(C)CN)c1ccccc1 (stereo not drawn) [CBK026834C] | 118% and 97.8% | –
13 | C=CCNC(=O)[C@H]1C=CCN1C(=O)Nc1ccc(F)cc1 [CBK282318] | 82.7% and 110% | –
14 | O=C(Nc1cc(-c2ccncc2)c[nH]c1=O)c1ccc(Cl)c(Cl)c1 [CBK115868] | 94.1% and 119% | –
15 | COc1ccc(Nc2nccc(-c3cccnc3)n2)cc1 [CBK288073] | 70.2% and 104% | –
16 | O=C(CSc1nc(O)c(Cc2ccccc2)c(=O)[nH]1)Nc1ccc([N+](=O)[O-])cc1 [CBK265887] | 88% and 113% | –
17 | CC(C)[C@@H](N)Cn1nc(-c2ccc(F)c(F)c2)ccc1=O [CBK282429] | 83% and 112% | –
18 | COc1ccc(CN2C(=O)[C@H]3CCCN3C(=O)c3ccccc32)cc1 [CBK282851] | 87.8% and 109% | –
19 | O=C(c1cccc(C(F)(F)F)c1)N1CCCC2(CCN(C(=O)c3ccoc3)C2)C1 (stereo not drawn) [CBK131616] | 116% and 88% | –
20 | O=C(CC1SC(NC2CC3C=CC2C3)=NC1=O)Nc1ccccc1Cl (stereo not drawn) [CBK005795] | 109% and 72.5% | –
21 | Cc1ccc2sc(NC(=O)c3ccc(N4C(=O)CCC4=O)cc3)nc2c1C [CBK287587] | 84.7% and 106% | –
22 | COc1ccc(-c2nc(SCc3ccccc3)[nH]c(=O)c2C#N)cc1 [CBK007169] | 107% and 84.8% | –
23 | CC[C@@H](Cn1nc(-c2cccs2)ccc1=O)NC(=O)C1CC1 [CBK282309] | 80.2% and 102% | –
24 | CC(=O)c1c(C)nc(-c2ccc(Cl)c(Cl)c2)n1O [CBK288525] | 116% and 89.2% | –
25 | O=C1CNC(=O)C2(C/C=C/C[C@H]3COCC[C@H]3N1)CCNCC2 [CBK292151] | 82.1% and 104% | –
26 | O=c1cc(O)c2ccccc2n1Cc1ccccc1 [CBK218877] | 107% and 84.4% | –
